Patent US20180271792A1, “ORAL DELIVERY OF PHYSIOLOGICALLY ACTIVE SUBSTANCES” (Rezolute, Inc., priority 2017, published 2018)

Columns and labels:
blood glucose = assay: Blood glucose in rats after oral gavage or subcutaneous dosing; type: in vivo; settings: subcutaneous 0.3 IU/kg
Protocol: The peptide and oil for formulations 44-47 were sonicated until they appeared cloudy but homogenous. Then the remaining ingredients were added to each sample. The samples were sonicated again until they appeared cloudy but homogenous. The samples were stored overnight at room temperature. Normal SD Rats (5 rats/group) were fasted overnight before being dosed by oral gavage at insulin equivalent dosage of 75 IU/kg. For comparison, a fifth group (sample 48) was dosed with Humulin R (recombinant human insulin) subcutaneously at 0.3 IU/kg. Blood was collected at predose (−30 min) and post dose (10 min, 30 min, 1 h, 1.5 h, 2 h, 3 h, 4 h, 6 h, 8 h) for glucose measurements by a glucometer. […]

[1] = rat, in vivo, po
Protocol: In forming samples 12-15, the insulin-PEG (or insulin-PEG inclusion complex) and the fish oil were sonicated for 30 minutes. The DPC was then added to the sonicated mixture and the mixture was briefly swirled or vortexed to mix. The resulting mixtures were kept at room temperature for 1 hour. The samples were administered via an oral gavage to rats at 150 IU/kg (for 5 kDa PEG) and 75 IU/kg (for 2 kDa PEG). At specified intervals, blood was collected from the jugular vein and analyzed for glucose values.

[2] = cited from earlier work

Protocol for Caco-2 monolayer: In order to estimate the membrane permeability of various formulations, a Caco-2 permeability study was performed. The compounds tested were insulin-PEG (5 kDa), insulin-PEG (5 kDa) inclusion complex, insulin-PEG (5 kDa) inclusion complex and DPC, insulin-PEG (2 kDa), and the insulin-PEG (2 kDa) inclusion complex. All compounds were dissolved in media at a concentration of 1 mg insulin/mL media and added to a Caco-2 monolayer.

Question: Which “time glucose back to baseline (~60 mg/dL)” value (blood glucose; Example 10) does the source give for “Sample 17: 0.015 mg/kg insulin-PEG (2 kDa), administered subcutaneously” here?
Answer: about 4 hours

Question: Which “time glucose back to baseline (~60 mg/dL)” value (blood glucose; Example 11) does the source give for “Sample 19: 0.011 mg/kg insulin, administered subcutaneously” here?
Answer: about 3 hours

Question: What about the “reduction in blood glucose to, within 30 minutes” value (blood glucose; Example 11, all rats) of the same substance?
Answer: 20 mg/dL

Question: With “Sample 18: 0.011 mg/kg insulin, administered subcutaneously” as the substance, how does the “time glucose back to baseline (~60 mg/dL)” value (blood glucose; Example 10) read?
Answer: about 3 hours

Question: For “48: Humulin R (recombinant human insulin) dosed subcutaneously at 0.3 IU/kg [Sample 48]”, which “time glucose back at baseline” value (blood glucose; Example 14) is on record?
Answer: 3 h

Question: Which results are given for “insulin-PEG (2 kDa): human insulin conjugated with a 2 kDa PEG”?
Answer: % of the insulin-PEG permeating through the cell layer after 3 hours (Caco-2 monolayer): 1%; serum insulin-PEG / absorption [1]: better absorbed than 5 kDa PEG

Question: For “GLP-1: a 31 amino acid peptide, an incretin, a hormone that can decrease blood glucose levels”, which in vivo half-life [2] is on record?
Answer: less than two
